Patent US12077503B2, “Substituted cyclic amides and their use as herbicides” (FMC CORPORATION, priority 2015, dated 2024)

What was measured:
Format in all cases: in vivo
[1] = system: ragweed (common ragweed, Ambrosia elatior); experiment: Test A postemergence; details: Ambrosia artemisiifolia, post-emergence, 240 h
In short: (§1)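 Visual injury scores from 0, no effect, to 100, complete control, were assigned versus untreated controls roughly 10 d after treatment in the greenhouse. Test chemicals, formulated with surfactant in a non-phytotoxic solvent, were applied to planted seeds as a preemergence soil spray or postemergence to one- to two-leaf plants 2 to 10 cm tall, in loam–sand soil.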

[2] = system: wheat (Triticum aestivum); experiment: Test A postemergence; details: Triticum aestivum, post-emergence, 240 h, Postemergence, 500 g ai/ha; visual injury, 0 to 100 scale (0 no effect, 100 complete control), approx. 10 d; read-out: Plant response rating, Wheat
In short: as §1

[3] = system: ryegrass, Italian (Italian ryegrass, Lolium multiflorum); experiment: Test A postemergence; details: Lolium multiflorum, post-emergence, 240 h
In short: as §1

[4] = system: giant foxtail (Setaria faberii); experiment: Test A postemergence; details: Setaria faberi, post-emergence, 240 h
In short: as §1

[5] = system: corn (Zea mays); experiment: Test A postemergence; details: Zea mays, post-emergence, 240 h
In short: as §1

[6] = system: pigweed (Amaranthus retroflexus); experiment: Test A postemergence; details: Amaranthus retroflexus, post-emergence, 240 h
In short: as §1

[7] = system: Galium (catchweed bedstraw, Galium aparine); experiment: Test A postemergence; details: Galium, post-emergence, 240 h
In short: as §1

[8] = system: blackgrass (Alopecurus myosuroides); experiment: Test A postemergence; details: Alopecurus myosuroides, post-emergence, 240 h
In short: as §1

[9] = system: Kochia (Kochia scoparia); experiment: Test A postemergence; details: Bassia scoparia, post-emergence, 240 h
In short: as §1

[10] = system: barnyardgrass (Echinochloa crus-galli); experiment: Test A postemergence; details: Echinochloa crus-galli, post-emergence, 240 h
In short: as §1

[11] = system: ragweed (common ragweed, Ambrosia elatior); experiment: Test A preemergence; details: Ambrosia artemisiifolia, pre-emergence, 240 h, preemergence, 0 to 100 scale where 0 is no effect and 100 is complete control, read-out: Ragweed plant response rating
In short: as §1

[12] = system: ryegrass, Italian (Italian ryegrass, Lolium multiflorum); experiment: Test A preemergence; details: Lolium multiflorum, pre-emergence, 240 h, preemergence, 0 to 100 scale where 0 is no effect and 100 is complete control, read-out: Ryegrass, Italian plant response rating
In short: as §1

[13] = system: giant foxtail (Setaria faberii); experiment: Test A preemergence; details: Setaria faberi, pre-emergence, 240 h, preemergence, 0 to 100 scale where 0 is no effect and 100 is complete control, read-out: Foxtail, Giant plant response rating
In short: as §1

[14] = system: pigweed (Amaranthus retroflexus); experiment: Test A preemergence; details: Amaranthus retroflexus, pre-emergence, 240 h, preemergence, 0 to 100 scale where 0 is no effect and 100 is complete control, read-out: Pigweed plant response rating
[15] = system: Kochia (Kochia scoparia); experiment: Test A preemergence; details: Bassia scoparia, pre-emergence, 240 h, preemergence, 0 to 100 scale where 0 is no effect and 100 is complete control, read-out: Kochia plant response rating
In short: as §1

[16] = system: barnyardgrass (Echinochloa crus-galli); experiment: Test A preemergence; details: Echinochloa crus-galli, pre-emergence, 240 h, preemergence, 0 to 100 scale where 0 is no effect and 100 is complete control, read-out: Barnyardgrass plant response rating
In short: as §1

[17] = 125 g ai/ha, visual injury rating, approximately 10 d

With `CN1C[C@H](c2ccc(C(F)(F)F)cc2)[C@@H](C(=O)Nc2ccccc2)C1=O` [Compound 1253] the pest or weed control at 125 g/ha ([1]; 125 g ai/ha, postemergence, visual injury vs untreated controls after approx. 10 d, 0 = no effect, 100 = complete control, read-out: Ragweed plant response rating (0 to 100 scale)) was 0%, the pest or weed control at 500 g/ha ([1]; Postemergence, 500 g ai/ha, visual injury, 0 to 100 scale (0 no effect, 100 complete control), approx. 10 d, read-out: Plant response rating, Ragweed) was 0% and the plant injury at 500 g/ha [2] was 50%. For the same compound, the pest or weed control at 125 g/ha ([3]; 125 g ai/ha, postemergence, visual injury vs untreated controls after approx. 10 d, 0 = no effect, 100 = complete control, read-out: Ryegrass, Italian plant response rating (0 to 100 scale)) was 40%, the pest or weed control at 500 g/ha ([3]; Postemergence, 500 g ai/ha, visual injury, 0 to 100 scale (0 no effect, 100 complete control), approx. 10 d, read-out: Plant response rating, Ryegrass, Italian) was 60% and the pest or weed control at 125 g/ha ([4]; 125 g ai/ha, postemergence, visual injury vs untreated controls after approx. 10 d, 0 = no effect, 100 = complete control, read-out: Foxtail, Giant plant response rating (0 to 100 scale)) was 80%. It also gave a pest or weed control at 500 g/ha ([4]; Postemergence, 500 g ai/ha, visual injury, 0 to 100 scale (0 no effect, 100 complete control), approx. 10 d, read-out: Plant response rating, Foxtail, Giant) of 90%, a plant injury at 125 g/ha ([5]; 125 g ai/ha, postemergence, visual injury vs untreated controls after approx. 10 d, 0 = no effect, 100 = complete control, read-out: Corn plant response rating (0 to 100 scale)) of 0% and a Corn plant response rating (crop injury, 0 = no effect, 100 = complete kill) at 500 g/ha ([5]; Postemergence, 500 g ai/ha, visual injury, 0 to 100 scale (0 no effect, 100 complete control), approx. 10 d) of 70%. It also gave a pest or weed control at 125 g/ha ([6]; 125 g ai/ha, postemergence, visual injury vs untreated controls after approx. 10 d, 0 = no effect, 100 = complete control, read-out: Pigweed plant response rating (0 to 100 scale)) of 0%, a pest or weed control at 500 g/ha ([6]; Postemergence, 500 g ai/ha, visual injury, 0 to 100 scale (0 no effect, 100 complete control), approx. 10 d, read-out: Plant response rating, Pigweed) of 30% and a pest or weed control at 125 g/ha ([7]; 125 g ai/ha, postemergence, visual injury vs untreated controls after approx. 10 d, 0 = no effect, 100 = complete control, read-out: Galium plant response rating (0 to 100 scale)) of 50%. The pest or weed control at 500 g/ha ([7]; Postemergence, 500 g ai/ha, visual injury, 0 to 100 scale (0 no effect, 100 complete control), approx. 10 d, read-out: Plant response rating, Galium) was 60%, the pest or weed control at 125 g/ha ([8]; 125 g ai/ha, postemergence, visual injury vs untreated controls after approx. 10 d, 0 = no effect, 100 = complete control, read-out: Blackgrass plant response rating (0 to 100 scale)) was 30% and the pest or weed control at 500 g/ha ([8]; Postemergence, 500 g ai/ha, visual injury, 0 to 100 scale (0 no effect, 100 complete control), approx. 10 d, read-out: Plant response rating, Blackgrass) was 50%. For the same compound, the pest or weed control at 125 g/ha ([9]; 125 g ai/ha, postemergence, visual injury vs untreated controls after approx. 10 d, 0 = no effect, 100 = complete control, read-out: Kochia plant response rating (0 to 100 scale)) was 60%, the pest or weed control at 500 g/ha ([9]; Postemergence, 500 g ai/ha, visual injury, 0 to 100 scale (0 no effect, 100 complete control), approx. 10 d, read-out: Plant response rating, Kochia) was 70% and the pest or weed control at 125 g/ha ([10]; 125 g ai/ha, postemergence, visual injury vs untreated controls after approx. 10 d, 0 = no effect, 100 = complete control, read-out: Barnyardgrass plant response rating (0 to 100 scale)) was 90%. For the same compound, the pest or weed control at 500 g/ha ([10]; Postemergence, 500 g ai/ha, visual injury, 0 to 100 scale (0 no effect, 100 complete control), approx. 10 d, read-out: Plant response rating, Barnyardgrass) was 100%, the pest or weed control at 125 g/ha [11, 17] was 40% and the pest or weed control at 500 g/ha ([11]; 500 g ai/ha) was 60%. For the same compound, the pest or weed control at 125 g/ha [12, 17] was 20%, the pest or weed control at 500 g/ha ([12]; 500 g ai/ha) was 60% and the pest or weed control at 125 g/ha [13, 17] was 100%. The pest or weed control at 500 g/ha ([13]; 500 g ai/ha) was 100%, the pest or weed control at 125 g/ha [14, 17] was 50% and the pest or weed control at 500 g/ha ([14]; 500 g ai/ha) was 80%. For the same compound, the pest or weed control at 125 g/ha [15, 17] was 80%, the pest or weed control at 500 g/ha ([15]; 500 g ai/ha) was 80% and the pest or weed control at 125 g/ha [16, 17] was 90%. It also gave a pest or weed control at 500 g/ha ([16]; 500 g ai/ha) of 100%.
